Source: patent publication EP0565593B1, “REDUCING PESTICIDAL INTERACTIONS IN CROPS” (priority 1990, dated 1992)
Where two headings read alike, the source gives them in different places.

Key:
[1] = test system: Corn
[2] = test system: Velvetleaf (VELE); format: in vivo, Abutilon theophrasti; conditions: […]
[3] = test system: Velvetleaf (VELE); test: whole plant or invertebrate; format: in vivo, Abutilon theophrasti
[4] = test system: Shattercane (SHCA); format: in vivo; conditions: […]
[5] = test system: Giant foxtail (GIFT); test: whole plant or invertebrate; format: in vivo
[6] = test system: Corn; conditions: […]
[7] = […], antidote number given but rate '-', 14 days after PPI (Table 34)
[8] = antidote number given but rate '-' (Table 33)
[9] = observed 8 days later (Table 32)
[10] = […], PPI, 13 days after PPI (Table 31)
[11] = observed 9 days later (Table 29)
[12] = observed 9 days later (Table 30)
[13] = […], PPI, 14 days after PPI (Table 34)
[14] = observed 8 days later (Table 33)
[15] = observed 7 days after POE (Table 35)
[16] = observed 7 days after POE (Table 36)

Compound | % Inhibition VELE [2, 9] [%] | % Inhibition SHCA [4, 9] [%] | % Inhibition Corn [6, 9] [%] | % Inhibition Corn [1, 13] [%] | % Inhibition VELE [2, 14] [%] | % Inhibition VELE [3, 13] [%] | % Inhibition SHCA [4, 14] [%] | % Inhibition GIFT [5, 13] [%] | % Inhibition Corn [6, 14] [%] | % Inhibition Corn ([1]; in vivo) [%] | % Inhibition VELE [2, 15] [%] | % Inhibition VELE [2, 16] [%] | % Inhibition VELE ([3]; in vivo) [%] | % Inhibition SHCA [4, 15] [%] | % Inhibition SHCA [4, 16] [%] | % Inhibition GIFT ([5]; in vivo) [%] | % Inhibition Corn [6, 15] [%] | % Inhibition Corn [6, 16] [%] | other results
CC(C)(C#N)OC(=O)COC(c1ccccc1)c1ccccc1 [compound 59] | 85 | 80 | 15 |  |  |  |  |  |  |  |  |  |  |  |  |  |  |  | % Inhibition Corn [1, 7]: 0%; % Inhibition VELE [2, 8]: 0%; % Inhibition VELE [3, 7]: 20%; % Inhibition SHCA [4, 8]: 0%; % Inhibition GIFT [5, 7]: 30%; % Inhibition Corn [6, 8]: 0%
CC1(C)OC(c2cccnc2)CN1C(=O)C(Cl)Cl (stereo not drawn) [compound 27] |  |  |  |  |  |  |  |  |  |  |  |  |  |  |  |  |  |  | % Inhibition Corn [1, 10]: 30%; % Inhibition VELE [2, 11]: 85%; % Inhibition VELE [2, 12]: 75%; % Inhibition VELE [3, 10]: 85%; % Inhibition SHCA [4, 11]: 75%; % Inhibition SHCA [4, 12]: 30%; % Inhibition GIFT [5, 10]: 75%; % Inhibition Corn [6, 11]: 25%; % Inhibition Corn [6, 12]: 30%
Cn1cccc1C1CN(C(=O)C(Cl)Cl)C(C)(C)O1 (stereo not drawn) [compound 35] |  |  |  |  |  |  |  |  |  |  |  |  |  |  |  |  |  |  | % Inhibition Corn [1, 10]: 40%; % Inhibition VELE [2, 11]: 90%; % Inhibition VELE [2, 12]: 65%; % Inhibition VELE [3, 10]: 80%; % Inhibition SHCA [4, 11]: 75%; % Inhibition SHCA [4, 12]: 30%; % Inhibition GIFT [5, 10]: 70%; % Inhibition Corn [6, 11]: 20%; % Inhibition Corn [6, 12]: 35%
C[n+]1cccc(C2CN(C(=O)C(Cl)Cl)C(C)(C)O2)c1 (stereo not drawn) [compound 37] |  |  |  |  |  |  |  |  |  |  |  |  |  |  |  |  |  |  | % Inhibition Corn [1, 10]: 60%; % Inhibition VELE [2, 11]: 90%; % Inhibition VELE [2, 12]: 75%; % Inhibition VELE [3, 10]: 85%; % Inhibition SHCA [4, 11]: 80%; % Inhibition SHCA [4, 12]: 35%; % Inhibition GIFT [5, 10]: 80%; % Inhibition Corn [6, 11]: 65%; % Inhibition Corn [6, 12]: 50%
CCOC(=O)CNC(c1ccc(Cl)cc1)c1ccc(Cl)cc1 [compound 44] | 85 | 80 | 65 | 75 | 65 | 95 | 30 | 65 | 60 |  |  |  |  |  |  |  |  |  | 
CCOC(=O)COC(c1c(C)cccc1C)c1c(C)cccc1C [compound 58] | 85 | 70 | 55 | 30 | 70 | 90 | 30 | 60 | 45 |  |  |  |  |  |  |  |  |  | 
O=C(COC(c1ccccc1)c1ccccc1)Oc1ccccc1 [compound 50] | 80 | 75 | 20 | 60 | 70 | 95 | 25 | 70 | 45 |  |  |  |  |  |  |  |  |  | 
Cc1ccc(SC2(C#N)CC2)cc1C [compound 73] |  |  |  |  |  |  |  |  |  | 70 | 75 | 70 | 90 | 70 | 35 | 90 | 70 | 70 | 
CC(C)(C)c1ccccc1SCCC#N [compound 74] |  |  |  |  |  |  |  |  |  | 70 | 80 | 70 | 90 | 80 | 20 | 85 | 65 | 60 | 
O=C(Oc1ccccc1)c1sc(Cl)nc1C(F)(F)F [compound 64] |  |  |  |  |  |  |  |  |  | 60 | 75 | 70 | 90 | 65 | 35 | 70 | 20 | 60 | 
CNC(=O)COC(c1ccccc1)c1ccccc1 [compound 42] | 90 | 75 | 70 | 75 | 70 | 90 | 30 | 70 | 60 |  |  |  |  |  |  |  |  |  | 
CCCCCCCCOC(=O)c1sc(Cl)nc1C(F)(F)F [compound 63] |  |  |  |  |  |  |  |  |  | 65 | 80 | 65 | 90 | 70 | 40 | 70 | 30 | 55 | 
[O-][n+]1ccccc1Sc1nc(Cl)c(Cl)c(Cl)c1Cl [compound 70] |  |  |  |  |  |  |  |  |  | 75 | 90 | 85 | 95 | 70 | 25 | 70 | 70 | 65 | 
O=C(O)COC(c1ccccc1)c1cccc(C(F)(F)F)c1 (stereo not drawn) [compound 49] | 90 | 70 | 45 | 55 | 80 | 100 | 30 | 65 | 70 |  |  |  |  |  |  |  |  |  | 
O=C(O)c1sc(Cl)nc1C(F)(F)F [compound 68] |  |  |  |  |  |  |  |  |  | 45 | 85 | 60 | 80 | 70 | 45 | 65 | 25 | 65 | 
CC1(C)OC(Cc2ccccc2)CN1C(=O)C(Cl)Cl (stereo not drawn) [compound 34] |  |  |  |  |  |  |  |  |  |  |  |  |  |  |  |  |  |  | % Inhibition Corn [1, 10]: 35%; % Inhibition VELE [2, 11]: 85%; % Inhibition VELE [2, 12]: 70%; % Inhibition VELE [3, 10]: 80%; % Inhibition SHCA [4, 11]: 70%; % Inhibition SHCA [4, 12]: 25%; % Inhibition GIFT [5, 10]: 75%; % Inhibition Corn [6, 11]: 15%; % Inhibition Corn [6, 12]: 35%
O=C(COC(c1ccccc1)c1cccc(C(F)(F)F)c1)OCC(F)(F)F (stereo not drawn) [compound 53] | 85 | 80 | 50 | 60 | 70 | 100 | 25 | 70 | 50 |  |  |  |  |  |  |  |  |  | 
Cc1csc(=NC(C)c2ccccc2)s1 (stereo not drawn) [compound 69] |  |  |  |  |  |  |  |  |  | 35 | 80 | 70 | 90 | 75 | 40 | 70 | 30 | 50 | 
O=C(COC(c1ccccc1)c1ccccc1)OCC(F)(F)F [compound 48] | 90 | 80 | 20 | 30 | 70 | 95 | 25 | 60 | 45 |  |  |  |  |  |  |  |  |  | 
CCOC(=O)CNC(c1ccc(OC)cc1)c1ccc(OC)cc1 [compound 43] | 85 | 65 | 55 | 80 | 75 | 90 | 35 | 70 | 65 |  |  |  |  |  |  |  |  |  | 
CC(C)(C)OC(=O)COC1c2ccccc2CCc2ccccc21 [compound 45] | 80 | 85 | 65 | 70 | 70 | 90 | 25 | 75 | 65 |  |  |  |  |  |  |  |  |  | 
O=C(COC(c1ccccc1)c1ccccc1)OCc1ccoc1 [compound 55] | 85 | 75 | 25 | 45 | 70 | 90 | 25 | 65 | 50 |  |  |  |  |  |  |  |  |  | 
CCOC(=O)c1sc(Cl)nc1C(F)(F)F [compound 60] |  |  |  |  |  |  |  |  |  | 60 | 80 | 65 | 90 | 60 | 35 | 75 | 40 | 60 | 
CCCOC(=O)COC(c1ccccc1)c1ccccc1 [compound 47] | 85 | 75 | 25 | 60 | 75 | 85 | 30 | 65 | 50 |  |  |  |  |  |  |  |  |  | 
O=C(C(Cl)Cl)N1CC(c2ccco2)OC1c1ccccc1 (stereo not drawn) [compound 36] |  |  |  |  |  |  |  |  |  |  |  |  |  |  |  |  |  |  | % Inhibition Corn [1, 10]: 60%; % Inhibition VELE [2, 11]: 100%; % Inhibition VELE [2, 12]: 80%; % Inhibition VELE [3, 10]: 90%; % Inhibition SHCA [4, 11]: 75%; % Inhibition SHCA [4, 12]: 35%; % Inhibition GIFT [5, 10]: 75%; % Inhibition Corn [6, 11]: 45%; % Inhibition Corn [6, 12]: 45%
CCOC(=O)c1sc(I)nc1C(F)(F)F [compound 67] |  |  |  |  |  |  |  |  |  | 55 | 85 | 70 | 95 | 65 | 40 | 75 | 35 | 45 | 
